The text below walks through data of patent US5482957A, “Azole derivatives, process for their preparation and their use” (Hoechst Aktiengesellschaft, priority 1991, dated 1996).

The target of the assay is angiotensin II receptor. Put plainly: Displacement of 125I- or 3H-angiotensin II from receptor preparations from various organs (liver, lung, adrenal gland, brain etc.). Format: binding. The following applies: Table 1; radioligand displacement, 25° C., 90 min, pH 7.4. The method, then:
Alternatively, the affinity of the compounds of the formula I for the angiotensin II receptor can be determined by measurement of the ^125 I-angiotensin II or ^3 H-angiotensin II displacement of receptor preparations from various organs (liver, lung, adrenal gland, brain etc.).
To this end, the prepared membranes are suspended in an incubation buffer ([…], pH 7.4, containing 135 mM NaCl, 10 mM KCl, 10 mM MgCl2, 5 mM glucose, 0.2% bovine serum albumin and the protease inhibitors PMSF, 0.3 mM, and bacitracin, 0.1 mM) and incubated at 25° C. for 90 min together with the radioactively labeled angiotensin II and various concentrations of the compounds to be tested. Bound and free radioligand are then separated by filtration through micro glass fiber filters (GF51, Schleicher and Schull) in a cell collector (SKATRON).
The degree of displacement of the radioligand from the receptor by the test compounds is determined by measurement of the receptor-bound radioactivity on the filters by means of a beta- or gamma-spectrometer. The amount of the displacement of the radioligand from the receptor by the test compounds is indicated by the IC50, i.e. the concentration of the inhibitor which displaces 50% of the bound radioligand from the receptor. The calculation of the IC50 values is carried out by means of PC software (LIGAND, G. A. McPherson 1985, Elsevier BIOSOFT, 68 Hills Road, Cambridge, CB2 1LA, UK.).
For orientation: IC50 means the concentration needed to halve the response being measured. Lower therefore signals greater potency in that assay. Regarding `CCCCc1nc(SC)c(C(=O)O)n1Cc1ccc(-c2ccccc2S(=O)(=O)NC(=O)OCC)cc1` [Example 171], the IC50 is 0.7 nM.
As for `CCCCc1nc(SC)c(C(=O)OCC)n1Cc1ccc(-c2ccccc2S(=O)(=O)NC(=O)NCC2CCNCC2)cc1` [Example 117], the figure is 1.2 nM; as for `C=CCOC(=O)NS(=O)(=O)c1ccccc1-c1ccc(Cn2c(CCCC)nc(SC)c2C(=O)O)cc1` [Example 181, 1-[(2'-allyloxycarbonylaminosulfonylbiphenyl-4-yl)methyl]-2-n-butyl-4-methylthioimidazole-5-carboxylic acid], 1 nM.
`CCCCc1nc(SC)c(C(=O)O)n1Cc1ccc(-c2ccccc2S(=O)(=O)NC(=O)NCc2ccccn2)cc1` [Example 113] gave an IC50 of 0.3 nM.
For `CCCCc1nc(Cl)c(C=O)n1Cc1ccc(-c2ccccc2S(=O)(=O)NC(=O)NC2CN3CCC2CC3)cc1` (centres unmarked) [Example 31], the IC50 turned out to be 153 nM.
`C=CCCOC(=O)NS(=O)(=O)c1ccccc1-c1ccc(Cn2c(CCCC)nc(SC)c2C(=O)O)cc1` [Example 153] gave a 50% inhibitory concentration (IC50) of 0.88 nM.
As for `CCCCc1nc(SC)c(C(=O)OCC)n1Cc1ccc(-c2ccccc2S(=O)(=O)NC(=O)OC)cc1` [Example 174], the figure is 5.1 nM.
In turn, `CCCCc1nc(SC)c(C(=O)OCC)n1Cc1ccc(-c2ccccc2S(=O)(=O)NC(=O)n2cccc2)cc1` [Example 138] had a 50% inhibitory concentration (IC50) of 1.7 nM.
As for `CCCCc1ncc(C(=O)OCC)n1Cc1ccc(-c2ccccc2S(=O)(=O)NC(=O)NCc2ccccc2)cc1` [Example 187, Ethyl 1-{[(2'-benzylaminocarbonylaminosulfonyl)biphenyl-4-yl]methyl}-2-n-butylimidazole-5-carboxylate], the figure is 1.2 nM; as for `CCCCc1nc(SC)c(C(=O)O)n1Cc1ccc(-c2ccccc2S(=O)(=O)NC(=O)NCCC2=CCCCC2)cc1` [Example 62], 3.6 nM; as for `CCCCc1nc(SC)c(C(=O)O)n1Cc1ccc(-c2ccccc2S(=O)(=O)NC(=O)NCC2CCC3CC2C3(C)C)cc1` (centres unmarked) [Example 135], 5.6 nM.
`CCCCc1nc(SC)c(C(=O)O)n1Cc1ccc(-c2ccccc2S(=O)(=O)NS(=O)(=O)N(C)C)cc1` [Example 179, 1-[1-(2'-dimethylsulfamoylaminosulfonylbiphenyl-4-yl)methyl]-2-n-butyl-4-methylthioimidazole-5-carboxylic acid] had an IC50 of 2.6 nM.
`CCCCc1nc(SC)c(C(=O)O)n1Cc1ccc(-c2ccccc2S(=O)(=O)NC(=O)N[C@H](CO)Cc2ccccc2)cc1` [Example 129]: the IC50 stood at 1.5 nM.
As for `CCCCc1nc(SC)c(C(=O)O)n1Cc1ccc(-c2ccccc2S(=O)(=O)NC(=O)NCc2cccnc2)cc1` [Example 112], the figure is 1.5 nM.
On to `CCCCc1nc(SC)c(C(=O)OCC)n1Cc1ccc(-c2ccccc2S(=O)(=O)NC(=O)NCC2CCC3CC2C3(C)C)cc1` (centres unmarked) [Example 134], for which the concentration for half-maximal inhibition (IC50) was 180 nM.
As for `CCCCc1nc(SC)c(C(=O)OCC)n1Cc1ccc(-c2ccccc2S(=O)(=O)NC(=O)NCc2ccccc2OC)cc1` [Example 84], the figure is 4.3 nM.
`CCCCc1nc(SC)c(C(=O)O)n1Cc1ccc(-c2ccccc2S(=O)(=O)NC(=O)NCc2ccc(OC)cc2)cc1` [Example 90] yielded an IC50 of 0.69 nM.
Turning to `CCCCc1nc(Cl)c(C=O)n1Cc1ccc(-c2ccccc2S(=O)(=O)NC(=O)Nc2ccccc2C)cc1` [Example 36], the half-inhibitory concentration (IC50) came out at 16 nM.
`CCCCc1nc(SC)c(C(=O)O)n1Cc1ccc(-c2ccccc2S(=O)(=O)NC(=O)OCc2ccccc2)cc1` [Example 183, 1-[(2'-Benzyloxycarbonylaminosulfonylbiphenyl-4-yl)methyl]-2-n-butyl-4-methylthioimidazole-5-carboxylic acid] registered an IC50 of 1.7 nM.
Then `CCCCc1nc(SC)c(C(=O)O)n1Cc1ccc(-c2ccccc2S(=O)(=O)NC(=O)NCCN2CCOCC2)cc1` [Example 107], with 2.5 nM.
As for `CCCCc1nc(SC)c(C(=O)OCC)n1Cc1ccc(-c2ccccc2S(=O)(=O)NC(=O)N[C@H](CO)Cc2ccccc2)cc1` [Example 128], the figure is 5.6 nM; as for `CCCCc1nc(SC)c(C(=O)OCC)n1Cc1ccc(-c2ccccc2S(=O)(=O)NC(=O)N[C@H](C(=O)OC)C(C)C)cc1` [Example 69], 3.2 nM; as for `CCCCc1nc(SC)c(C(=O)O)n1Cc1ccc(-c2ccccc2S(=O)(=O)NC(=O)NCCc2cccc(C(F)(F)F)c2)cc1` [Example 79], 5.8 nM.
With `C=C[C@H](Cc1ccccc1)NC(=O)NS(=O)(=O)c1ccccc1-c1ccc(Cn2c(CCCC)nc(SC)c2C(=O)O)cc1` [Example 127], the IC50 was 3 nM.
`CCCCc1nc(Cl)c(C=O)n1Cc1ccc(-c2ccccc2S(=O)(=O)NC(=O)Nc2nc(C)cs2)cc1` [Example 32] gave an IC50 of 3.5 nM.
In the case of `CCCCc1nc(SC)c(C(=O)O)n1Cc1ccc(-c2ccccc2S(=O)(=O)NC(=O)NCCCN2CCCC2=O)cc1` [Example 116], the half-inhibitory concentration (IC50) worked out at 2.4 nM.
Compound `CCCCc1nc(Cl)c(C=O)n1Cc1ccc(-c2cccc(S(=O)(=O)NC(=O)Nc3ncccn3)c2)cc1` [Example 4] showed an IC50 of 1100 nM.
In turn, `CCCCc1nc(SC)c(C(=O)OCC)n1Cc1ccc(-c2ccccc2S(=O)(=O)NC(=O)Nc2ccc(F)cc2)cc1` [Example 100] showed an IC50 of 68.5 nM.
As for `C=CCNC(=O)NS(=O)(=O)c1ccccc1-c1ccc(Cn2c(CCCC)nc(SC)c2C(=O)O)cc1` [Example 56, 1-[(2'-allylaminocarbonylaminosulfonylbiphenyl-4-yl)methyl]-2-n-butyl-4-methylthioimidazole-5-carboxylic acid], the IC50 stood at 4.6 nM.
As for `CCCCc1nc(SC)c(C(=O)OCC)n1Cc1ccc(-c2ccccc2S(=O)(=O)NS(=O)(=O)c2ccc([N+](=O)[O-])cc2)cc1` [Example 191], the figure is 21.4 nM; as for `CCCCc1nc(SC)c(C(=O)O)n1Cc1ccc(-c2ccccc2S(=O)(=O)NC(=O)NCCCN2CCCCC2C)cc1` (centres unmarked) [Example 111], 2.9 nM.
Compound `CCCCc1nc(SC)c(C(=O)OCC)n1Cc1ccc(-c2ccccc2S(=O)(=O)NS(=O)(=O)c2cccs2)cc1` [Example 194] yielded an IC50 of 21.7 nM.
`CCCCc1nc(SC)c(C(=O)OCC)n1Cc1ccc(-c2ccccc2S(=O)(=O)NC(=O)NCc2cccc(OC)c2)cc1` [Example 85] gave an IC50 of 3.9 nM.
Then `CCCCc1nc(SC)c(C(=O)OCC)n1Cc1ccc(-c2ccccc2S(=O)(=O)NC(=O)NCC2CC2)cc1` [Example 110], with 0.5 nM.
Then `CCCCc1nc(SC)c(C(=O)OCC)n1Cc1ccc(-c2ccccc2S(=O)(=O)NC(=O)OCc2cccs2)cc1` [Example 159], with 8.7 nM; and `CCCCc1nc(Cl)c(C=O)n1Cc1ccc(-c2ccccc2S(=O)(=O)NC(=O)Nc2ccccc2)cc1` [Example 1, 1-[(2'-phenylaminocarbonylaminosulfonylbiphenyl-4-yl)methyl]-2-n-butyl-4-chloroimidazole-5-carboxaldehyde], with 5000 nM; and `CCCCc1nc(OC)c(C=O)n1Cc1ccc(-c2ccccc2S(=O)(=O)NC(=O)OCC)cc1` [Example 185, 1-{[(2'-Ethoxycarbonylaminosulfonyl)biphenyl-4-yl]-methyl}-2-n-butyl-4-methoxyimidazole-5-carbaldehyde], with 5.9 nM.
Compound `CCCCc1nc(SC)c(C(=O)O)n1Cc1ccc(-c2ccccc2S(=O)(=O)NC(=O)N[C@H](CO)c2ccccc2)cc1` [Example 124] displayed a half-inhibitory concentration (IC50) of 1.8 nM.
